From patent US12612416B2, “Modulators of cystic fibrosis transmembrane conductance regulator” (VERTEX PHARMACEUTICALS INCORPORATED, priority 2020, dated 2026)
Read-outs that look alike come from different tables or passages of the source.

Experiments:
[1] = molecular target: T1, CFTR-mediated chloride transport in human intestinal epithelial enteroid cells (Homo sapiens, UniProt P13569); assay: Membrane potential dye, Enteroid Assay A; assay type: cell-based; conditions: for Ent. A Max Activity: % of chloride transport of triple combination control: 3 μM (S)-N-((6-aminopyridin-2-yl)sulfonyl)-6-(3-fluoro-5-isobutoxyphenyl)-2-(2,2,4-trimethylpyrrolidin-1-yl)nicotinamide, 3 μM tezacaftor, 300 nM acute ivacaftor; for EC50: enteroid cells, 18-24 hours incubation, acute 10 μM forskolin and 300 nM ivacaftor, read-out: Ent. A EC50
Experimental: (§1) Base medium (ADF+++) consisted of Advanced DMEM/Ham's F12, 2 mM Glutamax, 10 mM HEPES, […] penicillin/streptomycin.
(§2) Intestinal enteroid maintenance medium (IEMM) consisted of ADF+++, 1×B27 supplement, 1×N2 supplement, 1.25 mM N-acetyl cysteine, 10 mM Nicotinamide, 50 ng/mL hEGF, 10 nM Gastrin, 1 μg/mL hR-spondin-1, 100 ng/mL hNoggin, TGF-b type 1 inhibitor A-83-01, 100 μg/mL Primocin, 10 μM P38 MAPK inhibitor SB202190.
(§3) Bath 1 Buffer consisted of 1 mM MgCl2, 160 mM NaCl, 4.5 mM KCl, 10 mM HEPES, 10 mM Glucose, 2 mM CaCl2).
(§4) Chloride Free Buffer consisted of 1 mM Magnesium Gluconate, 2 mM Calcium Gluconate, 4.5 mM Potassium Gluconate, 160 mM Sodium Gluconate, 10 mM HEPES, 10 mM Glucose.
(§5) BathI Dye Solution consisted of Bath 1 Buffer, 0.04% Pluronic F127, 20 μM Methyl Oxonol, 30 μM CaCCinh-A01, 30 μM Chicago Sky Blue.
(§6) Chloride Free Dye Solution consisted of Chloride Free Buffer, 0.04% Pluronic F127, 20 μM Methyl Oxonol, 30 μM CaCCinh-A01, 30 μM Chicago Sky Blue.
(§7) Chloride Free Dye Stimulation Solution consisted of Chloride Free Dye Solution, 10 μM forskolin, 100 μM IBMX, and 300 nM Compound III.
(§8) Human intestinal epithelial enteroid cells were obtained from the Hubrecht Institute for Developmental Biology and Stem Cell Research, Utrecht, The Netherlands and expanded in T-Flasks as previously described (Dekkers J F, Wiegerinck C L, de Jonge H R, Bronsveld I, Janssens H M, de Winter-de Groot K M, Brandsma A M, de Jong N W M, Bijvelds M J C, Scholte B J, Nieuwenhuis E E S, van den Brink S, Clevers H, van der Ent C K, Middendorp S and M Beekman J M. A functional CFTR assay using primary cystic fibrosis intestinal organoids. Nat Med. 2013 July; 19(7):939-45.).
(§9) Cells were recovered in cell recovery solution, collected by centrifugation at 650 rpm for 5 minutes at 4° C., resuspended in TrypLE and incubated for 5 minutes at 37° C. Cells were then collected by centrifugation at 650 rpm for 5 minutes at 4° C. and resuspended in IEMM containing 10 μM ROCK inhibitor (RI). The cell suspension was passed through a 40 μm cell strainer and resuspended at 1×10^6 cells/mL in IEMM containing 10 μM RI. Cells were seeded at 5000 cells/well into multi-well plates and incubated for overnight at 37° C., 95% humidity and 5% CO2 prior to assay.
(§10) Enteroid cells were incubated with test compound in IEMM for 18-24 hours at 37° C., 95% humidity and 5% C02. […] Briefly, cells were washed 5 times in Bath 1 Buffer. Bath 1 Dye Solution was added, and the cells were incubated for 25 minutes at room temperature. Following dye incubation, cells were washed 3 times in Chloride Free Dye Solution. Chloride transport was initiated by addition of Chloride Free Dye Stimulation Solution and the fluorescence signal was read for 15 minutes. […] Chloride transport was then expressed as a percentage of the chloride transport following treatment with 3 μM (S)—N-((6-aminopyridin-2-yl)sulfonyl)-6-(3-fluoro-5-isobutoxyphenyl)-2-(2,2,4-trimethylpyrrolidin-1-yl)nicotinamide, 3 μM (R)-1-(2,2-difluorobenzo[d][1,3]dioxol-5-yl)-N-(1-(2,3-dihydroxypropyl)-6-fluoro-2-(1-hydroxy-2-methylpropan-2-yl)-1H-indol-5-yl)cyclopropanecarboxamide and 300 nM acute N-[2,4-bis(1,1-dimethylethyl)-5-hydroxyphenyl]-1,4-dihydro-4-oxoquinoline-3-carboxamide triple combination control (% Activity).

[2] = molecular target: T1, CFTR-mediated chloride transport in human intestinal epithelial enteroid cells; assay: Membrane potential dye, Enteroid Assay B; assay type: cell-based; conditions: for Ent. B Max Activity: % of chloride transport of triple combination control: 1 μM (14S)-8-[3-(2-{Dispiro[2.0.2.1]heptan-7-yl}ethoxy)-1H-pyrazol-1-yl]-12,12-dimethyl-...-2,2,4-trione, 3 μM tezacaftor, 300 nM acute ivacaftor; for EC50: enteroid cells, 18-24 hours incubation, acute 10 μM forskolin and 300 nM ivacaftor, read-out: Ent. B EC50
Experimental: as §1, §2, §3, §4, §5, §6, §7, §8, §9
as §10, with “95% humidity,” for “95% humidity”, “was added” for “was added,”, “with 1” for “with 3”, “μM (14S)-8-[3-(2-{Dispiro[2.0.2.1]heptan-7-yl}ethoxy)-1H-pyrazol-1-yl]-12,12-dimethyl-2λ^6-thia-3,9,11,18,23-pentaazatetracyclo[17.3.1.111,14.05,10]tetracosa-1(22),5,7,9,19(23),20-hexaene-2,2,4-trione,” for “μM (S)—N-((6-aminopyridin-2-yl)sulfonyl)-6-(3-fluoro-5-isobutoxyphenyl)-2-(2,2,4-trimethylpyrrolidin-1-yl)nicotinamide,”

T1 sequence (P13569 with tags, fused parts or gaps DEL508-508): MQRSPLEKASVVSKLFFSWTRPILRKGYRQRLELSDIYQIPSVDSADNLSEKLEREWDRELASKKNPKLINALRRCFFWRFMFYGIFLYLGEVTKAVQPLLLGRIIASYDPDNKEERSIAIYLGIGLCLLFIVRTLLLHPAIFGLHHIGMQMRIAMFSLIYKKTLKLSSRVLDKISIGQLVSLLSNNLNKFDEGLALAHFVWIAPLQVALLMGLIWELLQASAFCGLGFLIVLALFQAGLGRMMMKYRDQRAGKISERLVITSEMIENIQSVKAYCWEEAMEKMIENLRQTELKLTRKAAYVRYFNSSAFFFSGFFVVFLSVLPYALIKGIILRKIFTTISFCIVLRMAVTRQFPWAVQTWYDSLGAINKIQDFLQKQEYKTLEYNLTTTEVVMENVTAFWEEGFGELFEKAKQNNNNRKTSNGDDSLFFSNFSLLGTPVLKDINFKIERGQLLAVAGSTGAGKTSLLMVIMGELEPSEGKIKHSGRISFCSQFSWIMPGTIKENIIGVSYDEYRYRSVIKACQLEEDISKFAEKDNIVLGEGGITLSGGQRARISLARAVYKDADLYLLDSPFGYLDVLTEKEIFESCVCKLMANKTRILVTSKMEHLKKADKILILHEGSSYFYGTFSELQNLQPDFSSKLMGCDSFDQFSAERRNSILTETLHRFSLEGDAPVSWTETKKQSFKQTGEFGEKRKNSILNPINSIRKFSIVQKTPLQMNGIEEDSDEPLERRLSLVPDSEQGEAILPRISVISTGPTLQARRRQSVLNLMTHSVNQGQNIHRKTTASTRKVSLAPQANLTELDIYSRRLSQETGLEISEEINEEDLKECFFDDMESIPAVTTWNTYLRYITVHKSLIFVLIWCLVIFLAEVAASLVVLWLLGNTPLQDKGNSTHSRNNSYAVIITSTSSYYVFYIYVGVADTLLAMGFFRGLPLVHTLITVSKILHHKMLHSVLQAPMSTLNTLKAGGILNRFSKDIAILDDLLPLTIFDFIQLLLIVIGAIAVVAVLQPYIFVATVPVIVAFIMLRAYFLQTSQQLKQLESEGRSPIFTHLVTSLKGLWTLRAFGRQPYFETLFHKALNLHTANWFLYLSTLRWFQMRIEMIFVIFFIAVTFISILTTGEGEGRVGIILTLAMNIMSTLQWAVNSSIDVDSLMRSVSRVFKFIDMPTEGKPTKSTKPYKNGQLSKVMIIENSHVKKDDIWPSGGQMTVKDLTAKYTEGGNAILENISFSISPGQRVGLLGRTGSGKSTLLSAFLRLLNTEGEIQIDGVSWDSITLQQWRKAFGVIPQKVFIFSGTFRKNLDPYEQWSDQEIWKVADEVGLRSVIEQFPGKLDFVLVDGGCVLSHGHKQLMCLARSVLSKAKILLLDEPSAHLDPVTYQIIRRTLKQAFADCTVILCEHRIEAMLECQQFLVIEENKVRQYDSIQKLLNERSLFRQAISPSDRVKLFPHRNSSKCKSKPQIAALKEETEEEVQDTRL

Structure (SMILES): Cc1cccc(C)c1-c1cc2nc(n1)NS(=O)(=O)c1cccc(c1)C(=O)O[C@@H](C)[C@@H](CC(C)C)N2 [Compound 36]
- Ent. A Max Activity [1]: + (+ is <30%)

Structure (SMILES): Cc1cccc(C)c1-c1cc2nc(n1)NS(=O)(=O)c1cccc(c1)C(=O)NCC1(CCCCC1)CN2 [Compound 40, 6-(2,6-Dimethylphenyl)-2,2-dioxo-spiro[2 λ6-thia-3,5,9,13,20-pentazatricyclo[13.3.1.14,8]icosa-1(19),4(20),5,7,15,17-hexaene-11,1′-cyclohexane]-14-one]
- Ent. A Max Activity [1]: + (+ is <30%)
- EC50 [1]: 1000 to 3000 nM
- ring closure, yield after HPLC (from Cc1cccc(C)c1-c1cc(NCC2(CN)CCCCC2)nc(NS(=O)(=O)c2cccc(C(=O)O)c2)n1, amide bond, 14-membered ring, HATU/Et3N, DMF, 58.9 mM, 0.5 h): 33%

Structure (SMILES): Cc1cccc(C)c1-c1cc2nc(n1)NS(=O)(=O)c1cccc(c1)C(=O)NCCN2CC(C)C [Compound 39, 6-(2,6-Dimethylphenyl)-9-isobutyl-2,2-dioxo-2 λ6-thia-3,5,9,12,19-pentazatricyclo[12.3.1.14,8]nonadeca-1(18),4(19),5,7,14,16-hexaen-13-one]
- Ent. A Max Activity [1]: + (+ is <30%)
- ring closure, yield after HPLC (from Cc1cccc(C)c1-c1cc(N(CCN)CC(C)C)nc(NS(=O)(=O)c2cccc(C(=O)O)c2)n1, amide bond, 13-membered ring, HATU/Et3N, DMF, 25.3 mM, 25.0 °C, 0.5 h): 35%

Structure (SMILES): Cc1cccc(C)c1-c1cc2nc(n1)NS(=O)(=O)c1cccc(c1)C(=O)OCC(C)(C)CN2 [Compound 34]
- Ent. A Max Activity [1]: + (+ is <30%)

Structure (SMILES): Cc1cccc(C)c1-c1cc2nc(n1)NS(=O)(=O)c1cccc(c1)C(=O)N[C@H](C)CN2Cc1ccccc1 [Compound 38, (11R)-9-benzyl-6-(2,6-dimethylphenyl)-11-methyl-2,2-dioxo-2λ6-thia-3,5,9,12,19-pentazatricyclo[12.3.1.14,8]nonadeca-1(18),4(19),5,7,14,16-hexaen-13-one]
- Ent. A Max Activity [1]: + (+ is <30%)
- ring closure, yield after HPLC (from Cc1cccc(C)c1-c1cc(N(Cc2ccccc2)C[C@@H](C)N)nc(NS(=O)(=O)c2cccc(C(=O)O)c2)n1, amide bond, 13-membered ring, HATU/Et3N, DMF, 44.7 mM, 25.0 °C, 16.0 h): 23%

Structure (SMILES): Cc1cccc(C)c1-c1cc2nc(n1)NS(=O)(=O)c1cccc(c1)C(=O)OCC(CCC1(C(F)(F)F)CC1)N2CCC1CCOCC1 (stereo not drawn) [Compound 26, 6-(2,6-dimethylphenyl)-2,2-dioxo-9-(2-tetrahydropyran-4-ylethyl)-10-[2-[1-(trifluoromethyl)cyclopropyl]ethyl]-12-oxa-2λ6-thia-3,5,9,19-tetrazatricyclo[12.3.1.14,8]nonadeca-1(18),4(19),5,7,14,16-hexaen-13-one]
- Ent. A Max Activity [1]: +++ (+++ is >60%)
- EC50 [1]: 1000 to 3000 nM

Structure (SMILES): Cc1cccc(C)c1-c1cc2nc(n1)NS(=O)(=O)c1cccc(c1)C(=O)N(C1CC3(CC3)C1)[C@H](CC(C)C)CC2 [Compound 6, (11S)-6-(2,6-Dimethylphenyl)-11-isobutyl-2,2-dioxo-12-spiro[2.3]hexan-5-yl-2 λ6-thia-3,5,12,19-tetrazatricyclo[12.3.1.14,8]nonadeca-1(18),4(19),5,7,14,16-hexaen-13-one]
- Ent. B Max Activity [2]: +++ (+++ is >60%)
- EC50 [2]: < 1000 nM
- ring closure, yield after HPLC (from Cc1cccc(C)c1-c1cc(CC[C@@H](CC(C)C)NC2CC3(CC3)C2)nc(NS(=O)(=O)c2cccc(C(=O)O)c2)n1, amide bond, 13-membered ring, HATU/DIEA, NMP, 126.6 mM, 25.0 °C, 2.0 h): 50%

Structure (SMILES): Cc1cccc(C)c1-c1cc2nc(n1)NS(=O)(=O)c1cccc(c1)C(=O)OCC[C@@H](c1ccccc1)N2 [Compound 33]
- Ent. A Max Activity [1]: +++ (+++ is >60%)
- EC50 [1]: 1000 to 3000 nM

Structure (SMILES): Cc1cccc(C)c1-c1cc2nc(n1)NS(=O)(=O)c1cccc(c1)C(=O)OCC(CCC1(C(F)(F)F)CC1)N2CCC(C)C (stereo not drawn) [Compound 30]
- Ent. A Max Activity [1]: + (+ is <30%)

Structure (SMILES): Cc1cccc(C)c1-c1cc2nc(n1)NS(=O)(=O)c1cccc(c1)C(=O)OCC[C@H](c1ccccc1)N2 [Compound 28]
- Ent. A Max Activity [1]: ++ (++ is 30-60%)
- EC50 [1]: 1000 to 3000 nM

Structure (SMILES): Cc1cccc(C)c1-c1nc2nc(c1C)NCCOC(=O)c1cccc(c1)S(=O)(=O)N2 [Compound 24, 6-(2,6-dimethylphenyl)-7-methyl-12-oxa-2 λ6-thia-3,5,9,19-tetraazatricyclo[12.3.1.14,8]nonadeca-1(18),4,6,8(19),14,16-hexaene-2,2,13-trione]
- Ent. B Max Activity [2]: + (+ is <30%)
- ring closure, yield after HPLC (from Cc1cccc(C)c1-c1nc(NS(=O)(=O)c2cccc(C(=O)O)c2)nc(OCCN)c1C, ester bond, 13-membered ring, HATU/DIEA, DMF, 50.7 mM, 25.0 °C): 23%

Structure (SMILES): Cc1cccc(C)c1-c1cc2nc(n1)NS(=O)(=O)c1cccc(c1)C(=O)OCC(CCC1(C(F)(F)F)CC1)N2Cc1ccccc1 (stereo not drawn) [Compound 31]
- Ent. A Max Activity [1]: ++ (++ is 30-60%)
- EC50 [1]: 1000 to 3000 nM

Structure (SMILES): Cc1cccc(C)c1-c1nc2nc(c1F)CC[C@@H](CC(C)C)N(C1CC3(CC3)C1)C(=O)c1cccc(c1)S(=O)(=O)N2 [Compound 4, (11S)-6-(2,6-Dimethylphenyl)-7-fluoro-11-isobutyl-2,2-dioxo-12-spiro[2.3]hexan-5-yl-2 λ6-thia-3,5,12,19-tetrazatricyclo[12.3.1.14,8]nonadeca-1(18),4(19),5,7,14,16-hexaen-13-one]
- Ent. B Max Activity [2]: +++ (+++ is >60%)
- EC50 [2]: < 1000 nM
- ring closure, yield after HPLC (from Cc1cccc(C)c1-c1nc(NS(=O)(=O)c2cccc(C(=O)O)c2)nc(CC[C@@H](CC(C)C)NC2CC3(CC3)C2)c1F, amide bond, 13-membered ring, HATU/DIEA, NMP, 100.9 mM, 25.0 °C, 20.0 h): 30%

Structure (SMILES): Cc1cccc(C)c1-c1cc2nc(n1)NS(=O)(=O)c1cccc(c1)C(=O)N(C1CC3(CC3)C1)CCC2C (stereo not drawn) [Compound 11, 6-(2,6-dimethylphenyl)-9-methyl-2,2-dioxo-12-spiro[2.3]hexan-5-yl-2λ^6-thia-3,5,12,19-tetrazatricyclo[12.3.1.14,8]nonadeca-1(18),4(19),5,7,14,16-hexaen-13-one]
- Ent. B Max Activity [2]: +++ (+++ is >60%)
- EC50 [2]: 1000 to 3000 nM
- ring closure, yield after HPLC (from Cc1cccc(C)c1-c1cc(C(C)CCNC2CC3(CC3)C2)nc(NS(=O)(=O)c2cccc(C(=O)O)c2)n1, amide bond, 13-membered ring, HATU/DIEA, NMP, 20.1 mM, 25.0 °C, 16.0 h): 86%

Structure (SMILES): Cc1cccc(C)c1-c1cc2nc(n1)NS(=O)(=O)c1ccccc1C(=O)O[C@H](c1ccc(C(C)(C)C)cc1)[C@@H](C)N2 [Compound 27]
- Ent. A Max Activity [1]: + (+ is <30%)
